HELM strings list units from the 5' end as sugar, base in round brackets, then linkage (d deoxyribose, r ribose, m 2'-O-methyl, p phosphodiester). Strings are as the collection lists them; they lack the last nucleoside at the 3' end of the tested compound. [moe] = 2'-O-(2-methoxyethyl) (MOE); [sp] = phosphorothioate linkage; [m5C] = 5-methylcytosine
Biological target: PRNP
Assay: mouse, dose not given
Conditions: ASO

Row | Substance | 3 h FOB score [score 0-7]
1 | RNA1{[moe](T)[sp].[moe](G)p.[moe](G)p.[moe](T)p.[moe](G)[sp].d(T)[sp].d(T)[sp].d(A)[sp].d(T)[sp].d(A)[sp].d([m5C])[sp].d(A)[sp].d(T)[sp].d(T)[sp].d(T)[sp].[moe](A)p.[moe](G)p.[moe](G)[sp].[moe]([m5C])}$$$$ (last 3' nucleoside missing) | 1
2 | RNA1{[moe](T)[sp].[moe](T)p.[moe](T)p.[moe](G)p.[moe]([m5C])[sp].d(T)[sp].d(G)[sp].d(T)[sp].d(T)[sp].d(A)[sp].d(T)[sp].d(A)[sp].d([m5C])[sp].d(T)[sp].d(T)[sp].[moe](T)p.[moe](T)p.[moe](A)[sp].[moe]([m5C])}$$$$ (last 3' nucleoside missing) | 1.25
3 | RNA1{[moe](G)[sp].[moe](T)p.[moe](A)p.[moe](T)p.[moe](A)[sp].d(A)[sp].d(T)[sp].d(T)[sp].d(T)[sp].d(T)[sp].d(T)[sp].d(T)[sp].d(T)[sp].d(A)[sp].d([m5C])[sp].[moe]([m5C])p.[moe](T)p.[moe](G)[sp].[moe](G)}$$$$ (last 3' nucleoside missing) | 0
4 | RNA1{[moe](G)[sp].[moe](A)p.[moe](G)p.[moe]([m5C])p.[moe](A)[sp].d(A)[sp].d(T)[sp].d(A)[sp].d(T)[sp].d(A)[sp].d(T)[sp].d(T)[sp].d([m5C])[sp].d(A)[sp].d([m5C])[sp].[moe]([m5C])p.[moe](A)p.[moe](A)[sp].[moe](A)}$$$$ (last 3' nucleoside missing) | 2.5
5 | RNA1{[moe](T)[sp].[moe](G)p.[moe](G)p.[moe](G)p.[moe](A)[sp].d(G)[sp].d(T)[sp].d(A)[sp].d(T)[sp].d([m5C])[sp].d(A)[sp].d(A)[sp].d(T)[sp].d(T)[sp].d(T)[sp].[moe](A)p.[moe](A)p.[moe](G)[sp].[moe]([m5C])}$$$$ (last 3' nucleoside missing) | 0
6 | RNA1{[moe]([m5C])[sp].[moe](T)p.[moe]([m5C])p.[moe](T)p.[moe](A)p.[moe](T)p.d(G)[sp].d(T)[sp].d(T)[sp].d(T)[sp].d(T)[sp].d([m5C])[sp].d([m5C])[sp].d(A)[sp].d(G)[sp].d(T)[sp].[moe](G)p.[moe]([m5C])[sp].[moe]([m5C])}$$$$ (last 3' nucleoside missing) | 2
7 | RNA1{[moe](G)[sp].[moe]([m5C])p.[moe](T)p.[moe](T)p.[moe](A)p.[moe](T)p.d(T)[sp].d(A)[sp].d(T)[sp].d(T)[sp].d([m5C])[sp].d(A)[sp].d(T)[sp].d(G)[sp].d(T)[sp].d(T)[sp].[moe]([m5C])p.[moe](T)[sp].[moe]([m5C])}$$$$ (last 3' nucleoside missing) | 1.75
8 | RNA1{[moe](G)[sp].[moe]([m5C])p.[moe](T)p.[moe](A)p.[moe](G)[sp].d(G)[sp].d(T)[sp].d(G)[sp].d(A)[sp].d([m5C])[sp].d(A)[sp].d(A)[sp].d(T)[sp].d(A)[sp].d(T)[sp].[moe]([m5C])p.[moe](A)p.[moe](A)[sp].[moe](A)}$$$$ (last 3' nucleoside missing) | 0
9 | RNA1{[moe]([m5C])[sp].[moe](T)p.[moe](T)p.[moe](T)p.[moe]([m5C])[sp].d([m5C])[sp].d(T)[sp].d(G)[sp].d(A)[sp].d(T)[sp].d(A)[sp].d(G)[sp].d(T)[sp].d(T)[sp].d([m5C])[sp].[moe](A)p.[moe]([m5C])p.[moe](T)[sp].[moe](G)}$$$$ (last 3' nucleoside missing) | 2.5
10 | RNA1{[moe]([m5C])[sp].[moe](A)p.[moe](G)p.[moe](G)p.[moe](G)[sp].d(A)[sp].d(A)[sp].d(T)[sp].d(A)[sp].d(A)[sp].d(T)[sp].d(T)[sp].d(T)[sp].d(T)[sp].d(A)[sp].[moe]([m5C])p.[moe](T)p.[moe](T)[sp].[moe](T)}$$$$ (last 3' nucleoside missing) | 0
11 | RNA1{[moe](T)[sp].[moe](T)p.[moe](T)p.[moe](A)p.[moe]([m5C])[sp].d(T)[sp].d(T)[sp].d(T)[sp].d(T)[sp].d([m5C])[sp].d(A)[sp].d(G)[sp].d([m5C])[sp].d(T)[sp].d(G)[sp].[moe]([m5C])p.[moe]([m5C])p.[moe](T)[sp].[moe](T)}$$$$ (last 3' nucleoside missing) | 6
12 | RNA1{[moe]([m5C])[sp].[moe](G)p.[moe](T)p.d([m5C])[sp].d([m5C])[sp].d(A)[sp].d(T)[sp].d(T)[sp].d(T)[sp].d(T)[sp].d([m5C])[sp].d(T)[sp].d(G)[sp].[moe](T)p.[moe](G)p.[moe]([m5C])p.[moe](T)p.[moe](T)[sp].[moe](T)}$$$$ (last 3' nucleoside missing) | 0
13 | RNA1{[moe](A)[sp].[moe](T)p.[moe](T)p.[moe](T)p.[moe](G)[sp].d(A)[sp].d(T)[sp].d(T)[sp].d(T)[sp].d([m5C])[sp].d(A)[sp].d(A)[sp].d(G)[sp].d(T)[sp].d([m5C])[sp].[moe]([m5C])p.[moe]([m5C])p.[moe](A)[sp].[moe](G)}$$$$ (last 3' nucleoside missing) | 5.75
14 | RNA1{[moe](A)[sp].[moe](A)p.[moe](T)p.[moe](G)p.[moe](A)[sp].d([m5C])[sp].d(T)[sp].d([m5C])[sp].d(A)[sp].d(T)[sp].d([m5C])[sp].d(A)[sp].d(T)[sp].d(T)[sp].d(T)[sp].[moe](T)p.[moe](G)p.[moe]([m5C])[sp].[moe]([m5C])}$$$$ (last 3' nucleoside missing) | 0
15 | RNA1{[moe](G)[sp].[moe](T)p.[moe](A)p.[moe](T)p.[moe]([m5C])[sp].d(A)[sp].d(T)[sp].d(G)[sp].d(T)[sp].d(G)[sp].d(G)[sp].d([m5C])[sp].d([m5C])[sp].d(T)[sp].d([m5C])[sp].[moe]([m5C])p.[moe](T)p.[moe](A)[sp].[moe](A)}$$$$ (last 3' nucleoside missing) | 5.5
16 | RNA1{[moe](T)[sp].[moe](G)p.[moe](T)p.[moe]([m5C])p.[moe](A)p.d(T)[sp].d(A)[sp].d(A)[sp].d(T)[sp].d(T)[sp].d(T)[sp].d(T)[sp].d([m5C])[sp].d(T)[sp].[moe](T)p.[moe](A)p.[moe](G)[sp].[moe]([m5C])}$$$$ (last 3' nucleoside missing) | 0
17 | RNA1{[moe]([m5C])[sp].[moe](T)p.[moe](G)p.[moe](T)p.[moe](T)[sp].d(G)[sp].d([m5C])[sp].d(A)[sp].d([m5C])[sp].d(T)[sp].d(A)[sp].d(A)[sp].d(G)[sp].d(T)[sp].d([m5C])[sp].[moe]([m5C])p.[moe](A)p.[moe](A)[sp].[moe](A)}$$$$ (last 3' nucleoside missing) | 1
18 | RNA1{[moe]([m5C])[sp].[moe](G)p.[moe](G)p.[moe](G)p.[moe](T)[sp].d(T)[sp].d(T)[sp].d(T)[sp].d([m5C])[sp].d(T)[sp].d(T)[sp].d(A)[sp].d(A)[sp].d(A)[sp].d(A)[sp].[moe](T)p.[moe](G)p.[moe](G)[sp].[moe](A)}$$$$ (last 3' nucleoside missing) | 2
19 | RNA1{[moe](G)[sp].[moe]([m5C])p.[moe]([m5C])p.[moe](A)p.[moe](A)[sp].d(T)[sp].d(A)[sp].d(A)[sp].d(T)[sp].d(A)[sp].d(A)[sp].d([m5C])[sp].d(A)[sp].d(T)[sp].d(T)[sp].[moe](G)p.[moe]([m5C])p.[moe](A)[sp].[moe](G)}$$$$ (last 3' nucleoside missing) | 0
20 | RNA1{[moe]([m5C])[sp].[moe](A)p.[moe](G)p.[moe](T)p.[moe](G)[sp].d(T)[sp].d(T)[sp].d([m5C])[sp].d([m5C])[sp].d(A)[sp].d(T)[sp].d([m5C])[sp].d([m5C])[sp].d(T)[sp].d([m5C])[sp].[moe]([m5C])p.[moe](A)p.[moe](G)[sp].[moe](G)}$$$$ (last 3' nucleoside missing) | 1
21 | RNA1{[moe](T)[sp].[moe](G)p.[moe]([m5C])p.[moe](A)p.[moe]([m5C])[sp].d(A)[sp].d([m5C])[sp].d(T)[sp].d(G)[sp].d(A)[sp].d([m5C])[sp].d([m5C])[sp].d(A)[sp].d(T)[sp].d(T)[sp].[moe](T)p.[moe](T)p.[moe](T)[sp].[moe](T)}$$$$ (last 3' nucleoside missing) | 1
22 | RNA1{[moe](A)[sp].[moe]([m5C])p.[moe](T)p.[moe]([m5C])p.[moe](T)p.d(A)[sp].d(T)[sp].d(G)[sp].d(T)[sp].d(T)[sp].d(T)[sp].d(T)[sp].d([m5C])[sp].d([m5C])[sp].[moe](A)[sp].[moe](G)p.[moe](T)p.[moe](G)}$$$$ (last 3' nucleoside missing) | 2.25
23 | RNA1{[moe](T)[sp].[moe](G)p.[moe](T)p.[moe]([m5C])p.d(A)[sp].d(G)[sp].d(T)[sp].d(T)[sp].d(T)[sp].d(T)[sp].d(T)[sp].d([m5C])[sp].d([m5C])[sp].d([m5C])[sp].[moe]([m5C])p.[moe](A)p.[moe]([m5C])p.[moe](A)[sp].[moe](T)}$$$$ (last 3' nucleoside missing) | 0
24 | RNA1{[moe](G)[sp].[moe](T)p.[moe](T)p.[moe]([m5C])p.[moe](T)[sp].d(T)[sp].d(T)[sp].d(T)[sp].d([m5C])[sp].d(T)[sp].d(T)[sp].d(T)[sp].d(G)[sp].d([m5C])[sp].d(A)[sp].[moe]([m5C])p.[moe](A)p.[moe]([m5C])[sp].[moe](T)}$$$$ (last 3' nucleoside missing) | 6.25
25 | RNA1{[moe](A)[sp].[moe](A)p.[moe]([m5C])p.[moe](G)p.[moe](T)[sp].d([m5C])[sp].d([m5C])[sp].d(A)[sp].d(T)[sp].d(T)[sp].d(T)[sp].d(T)[sp].d([m5C])[sp].d(T)[sp].d(G)[sp].[moe](T)p.[moe](G)p.[moe]([m5C])[sp].[moe](T)}$$$$ (last 3' nucleoside missing) | 0
26 | RNA1{[moe](G)[sp].[moe](T)p.[moe](T)p.[moe](G)p.[moe](A)[sp].d(T)[sp].d(T)[sp].d(T)[sp].d(T)[sp].d(T)[sp].d([m5C])[sp].d([m5C])[sp].d(A)[sp].d(G)[sp].d(A)[sp].[moe](A)p.[moe](G)p.[moe](T)[sp].[moe](T)}$$$$ (last 3' nucleoside missing) | 3.25

— the OligoGym collection
